Data: patent publication US7964591B2, “Pyridazine derivatives and their use as therapeutic agents” (Novartis Pharma AG, priority 2003, dated 2011)

Target: T1, stearoyl-CoA desaturase (SCD) (Mus musculus, UniProt P13516)
T1 sequence (P13516 1-355): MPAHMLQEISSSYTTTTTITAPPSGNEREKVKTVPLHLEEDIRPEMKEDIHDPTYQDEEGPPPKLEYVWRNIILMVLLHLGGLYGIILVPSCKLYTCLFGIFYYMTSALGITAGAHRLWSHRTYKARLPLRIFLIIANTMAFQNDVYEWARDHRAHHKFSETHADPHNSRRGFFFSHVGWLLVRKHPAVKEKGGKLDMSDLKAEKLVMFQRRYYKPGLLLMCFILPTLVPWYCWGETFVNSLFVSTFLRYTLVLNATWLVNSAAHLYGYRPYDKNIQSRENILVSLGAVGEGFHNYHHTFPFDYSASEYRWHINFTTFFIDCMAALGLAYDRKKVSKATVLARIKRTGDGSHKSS
Test: Stearoyl-CoA desaturase inhibition using mouse liver microsomes (HTS microsomal assay, IC50 follow-up)
Conditions: % SCD enzyme activity remaining at 10 μM test compound
Method: Livers are immediately rinsed with cold 0.9% NaCl solution, weighed and minced with scissors. All procedures are performed at 4° C. unless specified otherwise. Livers are homogenized in a solution (1:3 w/v) containing 0.25 M sucrose, 62 mM potassium phosphate buffer (pH 7.0), 0.15 M KCl, 1.5 mM N-acetyleysteine, 5 mM MgCl2, and 0.1 mM EDTA using 4 strokes of a Potter-Elvehjem tissue homogenizer. The homogenate is centrifuged at 10,400×g for 20 min to eliminate mitochondria and cellular debris. The supernatant is filtered through a 3-layer cheesecloth and centrifuged at 105,000×g for 60 min. The microsomal pellet is gently resuspended in the same homogenization solution with a small glass/teflon homogenizer and stored at −70° C. The absence of mitochondrial contamination is enzymatically assessed. The protein concentration is measured using bovine serum albumin as the standard.
The tubes are vortexed vigorously and after 15 min incubation in a shaking water bath (37° C.), the reactions are stopped and fatty acids are analyzed.
Fatty acids are analyzed as follows: The reaction mixture is saponified with 10% KOH to obtain free fatty acids which are further methylated using BF3 in methanol. […] Fatty acid methyl esters are separated isocratically with acetonitrile/water (95:5 v:v) at a flow rate of 1 mL/min and are identified by comparison with authentic standards.
The compounds are analyzed with an HTS microsomal assay. The activities are defined in terms of % SCD enzyme activity remaining at the selected concentration (e.g., 10 μM) of the test compounds.

Row | Mouse Microsome 10% remaining @ 10 μM [%] | Compound
1 | 7 | COc1ccc(CCNC(=O)c2ccc(N3CCN(C(=O)c4ccccc4C(F)(F)F)CC3)nn2)cc1 [6-[4-(2-TRIFLUOROMETHYLBENZOYL)PIPERAZIN-1-YL]PYRIDAZINE-3-CARBOXYLIC ACID [2-(4-METHOXYPHENYL)ETHYL]AMIDE]
2 | 5 | O=C(NCCc1ccc(F)cc1F)c1ccc(N2CCN(C(=O)c3ccccc3C(F)(F)F)CC2)nn1 [6-[4-(2-TRIFLUOROMETHYLBENZOYL)PIPERAZIN-1-YL]PYRIDAZINE-3-CARBOXYLIC ACID [2-(2,4-DIFLUOROPHENYL)ETHYL]AMIDE]
3 | 8 | CC(C)CCNC(=O)c1ccc(N2CCN(C(=O)c3cnccc3C(F)(F)F)CC2)nn1 [6-[4-(4-TRIFLUOROMETHYLPYRIDINE-3-CARBONYL)PIPERAZIN-1-YL]PYRIDAZINE-3-CARBOXYLIC ACID (3-METHYLBUTYL)AMIDE]
4 | 6 | CCCCCNC(=O)Nc1ccc(N2CCN(C(=O)c3ccccc3C(F)(F)F)CC2)nn1 [1-PENTYL-3-{6-[4-(2-TRIFLUOROMETHYLBENZOYL)PIPERAZIN-1-YL]PYRIDAZIN-3-YL}UREA]
5 | 8 | O=C(NCCC1CC1)c1ccc(N2CCN(Cc3ccc(Cl)cc3Cl)CC2)nn1 [6-[4-(2,4-DICHLOROBENZYL)-PIPERAZIN-1-YL]PYRIDAZINE-3-CARBOXYLIC ACID (2-CYCLOPROPYLETHYL)AMIDE]
6 | 11 | O=C(NCCC1CC1)c1ccc(N2CCN(Cc3ccc(F)cc3Cl)CC2)nn1 [6-[4-(2-CHLORO-4-FLUOROBENZYL)PIPERAZIN-1-YL]PYRIDAZINE-3-CARBOXYLIC ACID (2-CYCLOPROPYLETHYL)AMIDE]
7 | 8 | O=C(NCCC1CC1)c1ccc(N2CCN(Cc3cc(Cl)ccc3Cl)CC2)nn1 [6-[4-(2,5-DICHLOROBENZYL)PIPERAZIN-1-YL]PYRIDAZINE-3-CARBOXYLIC ACID (2-CYCLOPROPYLETHYL)AMIDE]
8 | 7 | O=C(NCCC1CC1)c1ccc(N2CCN(Cc3cc(Cl)ccc3C(F)(F)F)CC2)nn1 [6-[4-(5-CHLORO-2-TRIFLUOROMETHYLBENZYL)PIPERAZIN-1-YL]PYRIDAZINE-3-CARBOXYLIC ACID (2-CYCLOPROPYLETHYL)AMIDE]
9 | 24 | CC(c1ccccc1C(F)(F)F)N1CCN(c2ccc(C(=O)NCCC3CC3)nn2)CC1.Cl (centres unmarked) [6-{4-[1-(2-TRIFLUOROMETHYLPHENYL)ETHYL]PIPERAZIN-1-YL}-PYRIDAZINE-3-CARBOXYLIC ACID (2-CYCLOPROPYLETHYL)AMIDE HYDROCHLORIDE]
10 | 36 | CCC(CC)C(=O)N1CCN(c2ccc(C(=O)NCCC3CC3)nn2)CC1 [6-[4-(2-ETHYLBUTYRYL)PIPERAZIN-1-YL]PYRIDAZINE-3-CARBOXYLIC ACID (2-CYCLOPROPYLETHYL)AMIDE]
11 | 8 | O=C(NCCC1CC1)c1ccc(N2CCN(C(=O)CC(O)(C(F)(F)F)C(F)(F)F)CC2)nn1 [6-[4-(4,4,4-TRIFLUORO-3-HYDROXY-3-TRIFLUOROMETHYLBUTYRYL)PIPERAZIN-1-YL]PYRIDAZINE-3-CARBOXYLIC ACID (2-CYCLOPROPYLETHYL)AMIDE]
12 | 0 | O=C(NCCc1ccccc1)c1ccc(N2CCN(C(=O)c3ccccc3C(F)(F)F)CC2)nn1 [6-[4-(2-Trifluoromethylbenzoyl)piperazin-1-yl]pyridazine-3-carboxylic acid phenethylamide]
13 | 46 | CC(=O)Oc1ccccc1C(=O)N1CCN(c2ccc(C(=O)NCCC3CC3)nn2)CC1 [ACETIC ACID 2-{4-[6-(2-CYCLOPROPYLETHYLCARAMOYL)PYRIDAZIN-3-YL]-PIPERAZINE-1-CARBONYL}PHENYL ESTER]
14 | 22 | O=C(NCCC1CC1)c1ccc(N2CCN(C(=O)C3CCCCC3)CC2)nn1 [6-(4-CYCLOHEXANECARBONYLPIPERAZIN-1-YL)PYRIDAZINE-3-CARBOXYLIC ACID (2-CYCLOPROPYLETHYL)AMIDE]
